Reference: patent US20160002247A1, “8-SUBSTITUTED IMIDAZOPYRIMIDINONE DERIVATIVE HAVING AUTOTAXIN INHIBITORY ACTIVITY” (THE UNIVERSITY OF TOKYO, priority 2013, published 2016)

Target: T1, Human autotaxin enzyme (Homo sapiens, UniProt Q13822)
T1 construct: purchased R&D System
Assay: Evaluation of autotaxin inhibitor, Method C (Test Example 3): 18:0 Lyso PC, choline assay, Resorufin fluorescence
Type: biochemical
Conditions: Assay Method C (Test Example 3), human autotaxin, 18:0 Lyso PC substrate; read-out: Inhibitory Activity (autotaxin enzyme inhibitory activity, IC50 class)
Method: (Method C) Evaluation of Autotaxin Inhibitor
Solution B containing 100 mM Tris-HCl buffer (pH7.5), 150 mM NaCl, 5 mM MgCl2 and 0.05% Triton X-100 was prepared. Human autotaxin enzyme (purchased from R&D System) was diluted with Solution B, and 2.5 μL of which was added to a solution of test compound in DMSO. Furthermore, 2.5 μl of 200 μM 18:0 Lyso PC (purchased from Avanti Polar Lipids) in Solution B was added and allowed to react at room temperature for 2 hours. After completion of the reaction, 15 μL of the coline assay reagent (100 mM Tris-HCl buffer (pH7.5), 5 mM MgCl2, 77 μg/mL choline oxidase, 10 μg/mL peroxidase, 25 μM 10-acetyl-3,7-dihydroxyphenoxazine and excess autotaxin inhibitor) was added and allowed to react at room temperature for 20 minutes. The fluorescent dye Resorufin, which was produced by the reaction, was detected. The fluorescence was detected using ViewLux (PerkinElmer, Inc.) with an excitation wavelength of 531 nm and a fluorescence wavelength of 598 nm.
The percent inhibition of the test compound was calculated by assuming the sample with no test compound as 0% inhibition and the sample with no enzyme as 100% inhibition, and the percent inhibitions at different concentrations of the test compound were plotted to obtain a concentration-dependent curve.

O=C(O)[C@H](Cc1ccccc1)NC(=O)[C@@H]1C[C@@H](O)CN1c1cc(=O)n2cc(-c3ccc(Cl)cc3)nc2n1Cc1ccccc1 [Compound 749] and O=C(O)[C@H](CCc1ccccc1)NC(=O)[C@@H]1C[C@@H](O)CN1c1cc(=O)n2cc(-c3ccc(Cl)cc3)nc2n1Cc1ccccc1 [Compound 751] cannot be ordered by IC50: under 10 nM for the first, under 10 nM for the second.

CCCCCn1c(N2C[C@H](F)C[C@H]2C(=O)NC(C)(C)CC(=O)OCC)cc(=O)n2cc(-c3ccc(Cl)cc3)nc12 [Compound 595] and CCCCCn1c(N2C[C@@H](F)C[C@H]2C(=O)O)cc(=O)n2cc(-c3ccc(Cl)cc3)nc12 [Compound 588] fall in the same range of IC50: 100 to 1000 nM for the first, 100 to 1000 nM for the second.

First: CCCCCn1c(N2CCC[C@H]2C(=O)NCCCCN2CC(C)OC(C)C2)cc(=O)n2cc(-c3ccc(Cl)cc3)nc12 (stereo partly shown) [Compound 657]
Second: CCCCCn1c(N2CCC[C@H]2C(=O)N[C@H](C)C(N)=O)cc(=O)n2cc(-c3ccc(Cl)cc3)nc12 [Compound 709]
The IC50 of the first is lower: under 10 nM for the first, 100 to 1000 nM for the second. The first is the more potent here.

N#CCCCCn1c(N2CCC(C(=O)O)CC2)cc(=O)n2cc(-c3ccc(Cl)cc3)nc12 [Compound 282] and Cc1cc(=O)n2cc(-c3ccc(Cl)cc3)nc2n1CCCCCC#N [Compound 98] fall in the same range of IC50: 10 to 100 nM for the first, 10 to 100 nM for the second.

CCCCCn1c(N2CCC3(CNC3)C2)cc(=O)n2cc(-c3ccc(Cl)cc3)nc12 [Compound 330] and CCCCCn1c(N2CCC(C3CNC3)C2)cc(=O)n2cc(-c3ccc(Cl)cc3)nc12 (stereo not shown) [Compound 332] fall in the same range of IC50: 100 to 1000 nM for the first, 100 to 1000 nM for the second.

CCCCCn1c(-c2ccc(C(=O)NCc3ccc(S(C)(=O)=O)cc3)cc2)cc(=O)n2cc(-c3ccc(Cl)cc3)nc12 [Compound 519] and CCCCCn1c(-c2ccc(C(=O)Nc3ccccc3)cc2)cc(=O)n2cc(-c3ccc(Cl)cc3)nc12 [Compound 469] fall in the same range of IC50: 10 to 100 nM for the first, 10 to 100 nM for the second.

First: CCCCCn1c(N2CCC(Cc3ccccc3)C2)cc(=O)n2cc(-c3ccc(Cl)cc3)nc12 (stereo not shown) [Compound 325]
Second: CCCCCn1c(N2CCCC2CC(C)C)cc(=O)n2cc(-c3ccc(Cl)cc3)nc12 (stereo not shown) [Compound 308]
The IC50 of the first is higher: 100 to 1000 nM for the first, 10 to 100 nM for the second.

CCCCCn1c(N2CCC[C@H]2C(=O)N[C@@H](CC2CCCCC2)C(=O)O)cc(=O)n2cc(-c3ccc(Cl)cc3)nc12 [Compound 734] and CCCCCn1c(N2CCC[C@H]2C(=O)N[C@H](CC)C(=O)O)cc(=O)n2cc(-c3ccc(Cl)cc3)nc12 [Compound 739] cannot be ordered by IC50: under 10 nM for the first, under 10 nM for the second.

CCCCCn1c(N2CCC[C@H]2CC(=O)NCCC(=O)O)cc(=O)n2cc(-c3ccc(Cl)cc3)nc12 [Compound 615] and CCCCCn1c(N2CCC[C@H]2CC(=O)NCC(=O)O)cc(=O)n2cc(-c3ccc(Cl)cc3)nc12 [Compound 628] cannot be ordered by IC50: under 10 nM for the first, under 10 nM for the second.

First: CCCCCn1c(N2CCC[C@H]2C(=O)NC(C)CC(=O)O)cc(=O)n2cc(-c3ccc(Cl)cc3)nc12 (stereo partly shown) [Compound 356]
Second: CCCCCn1c(N2C[C@@H](O)C[C@H]2C(=O)O)cc(=O)n2cc(-c3ccc(Cl)cc3)nc12 [Compound 590]
The IC50 of the first is lower: under 10 nM for the first, 100 to 1000 nM for the second. The first is the more potent here.

First: CCCCCn1c(NC2(C(=O)NCCC(=O)O)CC2)cc(=O)n2cc(-c3ccc(Cl)cc3)nc12 [Compound 625]
Second: CCCCCn1c(-c2ccc(C(=O)NC3(CO)CCC3)cc2)cc(=O)n2cc(-c3ccc(Cl)cc3)nc12 [Compound 497]
The IC50 of the first is higher: 100 to 1000 nM for the first, 10 to 100 nM for the second. The second is the more potent here.

Compared with CCCCCn1c(OCC2COC2)cc(=O)n2cc(-c3ccc(Cl)cc3)nc12 [Compound 720], O=C(NCCN1CCOCC1)c1ccc(-c2cc(=O)n3cc(-c4ccc(Cl)cc4)nc3n2CCCC(F)(F)F)cc1 [Compound 383] is lower in IC50: 100 to 1000 nM for the first, 10 to 100 nM for the second. The second is the more potent here.

Same assay, conditions: Assay Method C, human autotaxin, 18:0 Lyso PC substrate; read-out: Inhibitory Activity

First: CCCCCn1c(N2CCCC(C(=O)O)C2C)cc(=O)n2cc(-c3ccc(Cl)cc3)nc12 (stereo not shown) [Compound 809]
Second: CCCCCn1c(N2CCC[C@H]2C(=O)Nc2cc(O)no2)cc(=O)n2cc(-c3ccc(Cl)cc3)nc12 [Compound 799]
The IC50 of the first is higher: 100 to 1000 nM for the first, 10 to 100 nM for the second. The second is the more potent here.

For CCOC(=O)Cc1cn(CCCC(F)(F)F)c2nc(-c3ccc(Cl)cc3)cn2c1=O [Compound 828], the IC50 was over 1000 nM.

Same assay, conditions: Assay Method: Method C (Test Example 3); read-out: Inhibitory Activity (Enzyme Inhibitory Activity, IC50)

Compound Cc1cc(=O)n2cc(-c3ccc(Cl)cc3)nc2n1CCCCC#N [Compound 63] has an IC50 of 100 to 1000 nM.
